Measurements from patent publication US8227616B2, “Cyanopyridine antibacterial agents and methods of use thereof” (Wisconsin Alumni Research Foundation, priority 2006, dated 2012).
In brackets after ≈: the same amount, converted by molar mass. Where two headings read alike, the source gives them in different places.

Columns and labels:
Format in all cases: cell-based, Staphylococcus aureus
[1] = tested on: S. aureus ATCC 10390; assay: Estimated MIC, solution-phase microdilution absorbance assay with crude macroarray spot stock solutions; settings: for MIC: Staphylococcus aureus, ATCC10390, 12 h
Procedure: Spots from a new 69 member chalcone macroarray as well as the three heterocyclic macroarrays prepared earlier were punched out, cleaved, and eluted with acetonitrile. The resulting solutions were concentrated to a residue that was taken up in DMSO to form 2 mM stock solutions.
From the stock solutions, microdilution assays in a 96 well plate starting at 50 μM were performed in quadruplicate. Each well contained 5 μL of the stock solution as well as 195 μL of a S. aureus culture. The turbidity of each well was measured after incubating 12 hours using a standard plate reader. Active compounds can be further diluted and the assay repeated.
To acquire more quantitative antibacterial activity data about our compounds and verify our on-support assay results, we performed solution-phase absorbance assays that provided estimates of the minimum inhibitory concentration (MIC) of each macroarray member against S. aureus. Stock solutions (ca. 2 mM) were generated by cleaving and eluting 198 individual compounds from chalcone (3) and heterocyclic macroarrays (5, 7, and 8). […] The good overall purities of the crude macroarray compounds allowed for reasonable estimations of MICs.
For estimated MIC determination, DMSO was added to the dried compound residue obtained from a single spot to afford ca. 100 μL of a 2 mM stock solution. Aliquots (5 μL) of these solutions were added to a 96-well plate, followed by 195 μL of diluted S. aureus 10390 (10^6 CFUs/mL) to yield ca. 50 μM final concentrations. The plates were swirled for 1 h to ensure compound dissolution, incubated for 12 h at 37° C., and the absorbance at 595 nm was recorded using a plate reader. […] Actual MIC values were determined for lead compounds resynthesized in solution using an analogous procedure with solutions of known concentration (see).
Preparation of spot samples and controls. An aliquot of DMSO (ca. 100 μL depending on the loading of the parent hydroxyacetophenone) was added to the dried compound residue obtained after TFA cleavage and elution from a single spot. This afforded a 2.0 mM “spot stock” solution for each spot. A small aliquot of each “spot stock” solution was saved for subsequent LC-MS analysis.
For estimated MIC screens, 5.0 μL portions of the “spot stock” solutions were added to the appropriate wells in a sterile, polystyrene 96-well plate to yield ca. 50 μM solutions (dependent on the initial loading of hydroxyacetopheneone and compound purity). To the positive and negative control wells, 5.0 μL of DMSO were added (positive controls contained bacteria but no compound, while negative controls had neither compound nor bacteria). All estimated MIC assays were performed in quadruplicate. Note: the MIC value is defined as the lowest concentration where no bacterial growth occurs.
Representative estimated MIC assay procedure. This assay procedure is based in part on the method reported by Strøm et al.^xiii A 400 μL portion of overnight S. aureus 10390 culture was diluted with 100 mL of sterile LB broth to give ca. 10^6 CFUs per mL. Aliquots (195 μL) of this solution were added to all of the wells in a sterile 96-well plate (except for the negative control wells; 195 μL of sterile LB broth were added to these wells). The plates were placed on an orbital shaker table and gently swirled for 1 h to ensure compound dissolution, and then incubated (without shaking) for 12 h at 37° C. The absorbance at 595 nm was recorded using a plate reader.
The original “spot stock” solutions of these compounds were diluted with DMSO to give ca. 25 and 13 μM final concentrations and tested for inhibitory activities using the procedure described above.

[2] = tested on: S. aureus 10390; assay: Time-dependent bacterial killing curves; settings: 0.5x to 4x MIC, 0-6 h
Procedure: Solutions of compounds 4Bv, 6Ao, 9Cf, and linezolid were prepared in DMSO over a range of concentrations. […] At 0, 2, 4, and 6 h time points, […] samples were withdrawn from the test tubes, diluted into 10 mL of LB broth in a test tube, and swabbed in duplicate on agar plates to determine CFUs. These plates were incubated at 37° C. for 24 h, after which time the colonies were counted visually. […] Instead, 200 μL was removed from the test tube and directly swabbed on the agar plates.

[3] = tested on: S. aureus ATCC 10390; assay: Kirby-Bauer disk diffusion assay on compound spots from cleaved macroarray; settings: loadings 30 μg/spot, 18 h incubation
Procedure: While the heterocyclic libraries were being synthesized, the chalcone macroarrays were analyzed using various direct assay techniques such as the Kirby-Bauer disk diffusion assay (FIG. 2E). Bauer, A. W.; Kirby, […].; Turck, M. Technical Bulletin of the Registry of Medical Technologists 1966, 36, 49-52. For this assay, the macroarray members are punched out from the membrane, cleaved from the support with TFA vapor, neutralized with ammonia vapor, and then placed on an agar bed inoculated with S. aureus. After incubating overnight, different diameters of zones of inhibition are measured as a factor of potency as well as solubility in the medium. Ammonia vapor neutralization was key in the disk diffusion assay, otherwise residual TFA vapor created a false positive signature. However, in this method, macroarrays have to be made in triplicate one for a replicate and one for compound characterization. We first evaluated test chalcone macroarrays (3) in antibacterial assays against S. aureus. Because the macroarrays were prepared on cellulose filter paper, we had convenient access to the compounds in disk form for standard disk diffusion assays. Compound spots were punched out of the macroarrays, subjected to vapor phase cleavage with acid (TFA), and neutralized (NH3) to afford disks containing ca. 30 μg of adsorbed compound [8]. These disks were manually placed on lawns of S. aureus, and zones of inhibition were measured after an 18 h incubation period. […] However, this antibacterial assay format had drawbacks: (1) the entire sample of compound was consumed during the assay, and thus replicate arrays needed to be synthesized to confirm activity, and (2) manipulating large numbers of compound disks was relatively labor intensive. Compound spots were cleaved with TFA and neutralized with NH3 as described herein. […] Compound spots were placed onto the agar, the plate was incubated at 37° C. for 18 h, and the diameters of the zones of inhibition were measured. […] Compound spots were subjected to the TFA cleavage conditions described above. The spots were next subjected to NH3 vapor to neutralize any remaining TFA. […] Vials containing the spots (or intact macroarrays) were placed inside a small evaporating dish, and this was placed into the NH4OH solution. The Pyrex dish was covered, and NH3 vapor was allowed to slowly diffuse into the vials. After 1 h, the vials were removed from the NH3 chamber, and the spots were allowed to stand open in a fume hood for at least 15 min to vent prior to analysis in the following assays. This afforded dry, paper disks containing adsorbed compound. […] The plates were removed, and the diameters of the zones of inhibition were measured in mm using a ruler (see FIG. 1A).

MIC ([1]; Table 2, serial dilution of stock solutions obtained by SPOT-synthesis, read-out: estimated MIC range): 6.25 to 12.5 µM (≈ 2.25 to 4.5 µg/mL)
MIC ([1]; Table 3, serial dilution of spot stock solutions of crude macroarray compounds, read-out: S. aureus Estimated MIC range): < 12.5 µM
SMILES: O=C(/C=C/c1cc(C(F)(F)F)cc(C(F)(F)F)c1)c1cccc(O)c1 [Compound 4Bv, 3′-hydroxy-3,5-bis(trifluoromethyl)chalcone]
inhibition of S. aureus at the 12.5 μM level ([1]; 12.5 μM, macroarray stock solutions diluted four fold): complete inhibition
mode of activity (bacteriostatic or bactericidal) [2]: bacteriostatic
Zones of inhibition [3]: 22 mm
